Data on 21 molecules can be found in patent EP4813463A2, “TYK2 INHIBITORS AND COMPOSITIONS AND METHODS THEREOF” (Lynk Pharmaceuticals Co. Ltd., priority 2023, dated 2024).

Structures are written as SMILES. Where two headings read alike, the source gives them in different places.

One test has as its target T1, TYK2-JH2 domain (Homo sapiens, UniProt P29597).
T1 construct: JAK1-JH2 domain or TYK2-JH2 domain enzyme in assay buffer
Description: Binding activity test for JH2 domain of TYK2 (Tb-antibody/tracer FRET). The conditions noted are these: JH2 domain enzyme; 60 min at 25°C, then 4°C overnight; read-out: TYK2 JH2 Binding IC50. How it is done:
Binding Activity test for JH2 domain of JAK1 and TYK2 […] Add 8μL/well in echo source plate, echo will add 75nL/well with 3-fold serial dilution for 11 points in assay plate. 75nL DMSO for high control and low control. […] For low control, add 5μL/well assay buffer. And then spin down at 1000rpm and centrifuge for 30 seconds. After enzyme system prepared, add 5μL of Tb-antibody solution into each well of assay plate. Spin down at 1000 rpm and centrifuge for 30sec. After Tb-antibody added, also add 5μL of tracer into the assay plate. Spin down at 1000rpm and centrifuge for 30sec. Incubate for […] at 25°C firstly and then continue to incubate the plate at 4°C overnight. Read by envision in FRET mode. The Luminescence value was recorded by a multi-label reader Envision (PerkinElmer). […] Table 2. IC50 on JH2 domain activity (nM)

Test [1] deals with Ba/F3-FL-TYK2-P760L cells. Description: Anti-proliferative assay in engineered Ba/F3 cells (Cell-Titer Glo, 72 h). Format: cell-based. The settings on record: 72 h compound treatment, concentration that causes 50% growth inhibition, read-out: Baf3-FL-T2P760L. How it is done:
Dimerization domain of Tel protein fused with JAK kinase domain was permanently transduced into Ba/F3 cells, whose proliferation is dependent on JAK activity in the absence of IL-3 induction. These engineered Ba/F3-FL-TYK2-P760L cells were used to monitor JAK inhibitory activities of the compounds in the cellular. Ba/F3 cells were cultured in RPMI-1640 (Corning) containing 10% fetal bovine serum. Cells were seeded at 2000/well of white flat bottom 96-well plates. The well containing medium only was used as background control. After 24h growth, cells were treated with compounds. The test compounds were dissolved in DMSO to a stock concentration of 20 mM. 3-fold serially diluted compounds for 9 concentrations with top concentration of 20 µM was added into the each well. The final DMSO concentration was 0.1%. The cells continued to grow at 37°C in 5% CO2 for 72 h after compound treatment. The viability was measured by cellular ATP determination using the Cell-Titer Glo luciferase reagent (Promega). The Luminescence value was recorded by a multi-label reader Envision (PerkinElmer). Inhibition Rate was calculated relative to vehicle (DMSO) treated control wells using following formula: % Inhibition = 100−(RLU_compound−RLU_blank)/(RLU_control−RLU_blank) × 100% [formula] wherein • RLU_compound = the relative light unit of cells treated with test compounds • RLU_blank = the relative light unit of medium with DMSO only • RLU_control = the relative light unit of cells treated with DMSO only
Table 4. Ba/F3-FL-TYK2-P760L Cells IC50 Values of Exemplary Compounds

T1 sequence (P29597 589-875 limits assumed): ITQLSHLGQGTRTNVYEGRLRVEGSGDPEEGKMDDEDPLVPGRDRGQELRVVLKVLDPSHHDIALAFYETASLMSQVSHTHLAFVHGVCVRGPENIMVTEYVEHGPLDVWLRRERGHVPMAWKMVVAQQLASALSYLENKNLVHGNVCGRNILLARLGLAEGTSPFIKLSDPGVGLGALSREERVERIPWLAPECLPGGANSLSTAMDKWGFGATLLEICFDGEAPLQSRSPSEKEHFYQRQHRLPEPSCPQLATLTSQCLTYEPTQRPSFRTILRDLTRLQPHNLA

For the molecule `[2H]C([2H])([2H])NC(=O)c1cnc(NC(=O)C2CC2)cc1Nc1nn(CC)c2ccc(C(O)C(F)(F)F)c(OC)c12` (single isomer, unassigned) [Example 71B, (R*)-6-(cyclopropanecarboxamido)-4-((1-ethyl-4-methoxy-5-(2,2,2-trifluoro-1-hydroxyethyl)-1H-indazol-3-yl)amino)-N-(methyl-d3)nicotinamide], the figures for the IC50 (on TYK2-JH2 domain; in test [1]) were 0.25 nM and 17.9 nM, respectively.

Turning to `COC(=O)c1cnc(NC(=O)C2CC2)cc1Nc1nn(C)c2ccc(C(OC)C(C)(F)F)c(OC)c12` (single isomer, unassigned) [Example 115A, Methyl (S*)-6-(cyclopropanecarboxamido)-4-((5-(2,2-difluoro-1-methoxypropyl)-4-methoxy-1-methyl-1H-indazol-3-yl)amino)nicotinate], the IC50 is 0.119 nM at TYK2-JH2 domain and 9.83 nM in test [1] (Mus musculus, BaF3, 72 h).

Consider `[2H]C([2H])([2H])OC(c1ccc2c(c(Nc3cc(NC(=O)C4CC4)ncc3C(=O)OC)nn2CCOC)c1OC)C(F)(F)F` (single isomer, unassigned) [Example 157A, Methyl (S*)-6-(cyclopropanecarboxamido)-4-((4-methoxy-1-(2-methoxyethyl)-5-(2,2,2-trifluoro-1-methoxyethyl)-1H-indazol-3-yl)amino)nicotinate], for which the figures for the IC50 (on TYK2-JH2 domain; in test [1]) were 0.095 nM and 2.51 nM, respectively.

Turning to `CCC(F)(F)c1cnc(NC(=O)C2CC2)cc1Nc1nn(C)c2ccc(C(O)C(F)(F)F)c(OC)c12` (single isomer, unassigned) [Example 193B, (R*)-N-(5-(1,1-Difluoropropyl)-4-((4-methoxy-1-methyl-5-(2,2,2-trifluoro-1-hydroxyethyl)-1H-indazol-3-yl)amino)pyridin-2-yl)cyclopropanecarboxamide], the IC50 at TYK2-JH2 domain came out at 1.18 nM; in test [1] it was 45 nM.

`[2H]C([2H])([2H])NC(=O)c1cnc(NC(=O)C2CC2)cc1Nc1nn(C)c2ccc([C@@H](OC)C(F)(F)F)c(OC)c12` [Example 46B, (R)-6-(cyclopropanecarboxamido)-4-((4-methoxy-1-methyl-5-(2,2,2-trifluoro-1-methoxyethyl)-1H-indazol-3-yl)amino)-N-(methyl-d3)nicotinamide]: the IC50 at TYK2-JH2 domain is 0.18 nM; in test [1] (Mus musculus, BaF3, 72 h), 11.2 nM.

For `COC(=O)c1cnc(NC(=O)C2CC2)cc1Nc1cccc(-c2cnn(C)n2)c1OC` [Example 63, Methyl 6-(cyclopropanecarboxamido)-4-((2-methoxy-3-(2-methyl-2H-1,2,3-triazol-4-yl)phenyl)amino)nicotinate], the IC50 on TYK2-JH2 domain worked out at 0.285 nM; in test [1] (Mus musculus, BaF3, 72 h), 48.4 nM.

As to `[2H]C([2H])([2H])NC(=O)c1cnc(NC(=O)C2CC2)cc1Nc1csc2ccc(C(OC)C(F)(F)F)c(OC)c12` (stereo not drawn) [Example 72, 6-(Cyclopropanecarboxamido)-4-((4-methoxy-5-(2,2,2-trifluoro-1-methoxyethyl)benzo[b]thiophen-3-yl)amino)-N-(methyl-d3)nicotinamide], the IC50 was 0.14 nM at TYK2-JH2 domain and 2.65 nM in test [1] (Mus musculus, BaF3, 72 h).

Regarding `CONC(=O)c1cnc(NC(=O)C2CC2)cc1Nc1nn(C)c2ccc(C(OC)C(F)(F)F)c(OC)c12` (stereo not drawn) [Example 73, 6-(Cyclopropanecarboxamido)-N-methoxy-4-((4-methoxy-1-methyl-5-(2,2,2-trifluoro-1-methoxyethyl)-1H-indazol-3-yl)amino)nicotinamide], the IC50 turned out to be 0.14 nM at TYK2-JH2 domain and 7.56 nM in test [1] (Mus musculus, BaF3, 72 h).

As to `COC(=O)c1cnc(NC(=O)C2CC2)cc1Nc1nn(C)c2ccc(C(OC)C3(F)CC3)c(OC)c12` (stereo not drawn) [Example 74, Methyl 6-(cyclopropanecarboxamido)-4-((5-((1-fluorocyclopropyl) (methoxy)methyl)-4-methoxy-1-methyl-1H-indazol-3-yl)amino)nicotinate], the IC50 turned out to be 0.18 nM on TYK2-JH2 domain and 30.7 nM in test [1] (Mus musculus, BaF3, 72 h).

For `COC(=O)c1cnc(NC(=O)[C@@H]2C[C@@H]2F)cc1Nc1nn(C)c2ccc([C@H](OC)C(F)(F)F)c(OC)c12` [Example 76, Methyl 6-((1S,2S)-2-fluorocyclopropane-1-carboxamido)-4-((4-methoxy-1-methyl-5-((S)-2,2,2-trifluoro-1-methoxyethyl)-1H-indazol-3-yl)amino)nicotinate], the IC50 came to 0.09 nM at TYK2-JH2 domain and 3.49 nM in test [1] (Mus musculus, BaF3, 72 h).

For `COCCn1nc(Nc2cc(NC(=O)C3CC3)ncc2C(=O)OC)c2c(OC)c(C(OC)C(F)(F)F)ccc21` (stereo not drawn) [Example 78, Methyl 6-(cyclopropanecarboxamido)-4-((4-methoxy-1-(2-methoxyethyl)-5-(2,2,2-trifluoro-1-methoxyethyl)-1H-indazol-3-yl)amino)nicotinate], the IC50 on TYK2-JH2 domain came to 0.17 nM; in test [1] (Mus musculus, BaF3, 72 h), 5.26 nM.

On to `COC(=O)c1cnc(NC(=O)C2CC2)cc1Nc1csc2ccc(C(OC)C(F)(F)F)c(OC)c12` (stereo not drawn) [Example 111, Methyl 6-(cyclopropanecarboxamido)-4-((4-methoxy-5-(2,2,2-trifluoro-1-methoxyethyl)benzo[b]thiophen-3-yl)amino)nicotinate], for which the IC50 on TYK2-JH2 domain was 0.364 nM; in test [1] (Mus musculus, BaF3, 72 h), 19 nM.

For `COC(=O)c1cnc(NC(=O)C2CC2)cc1Nc1nn(C)c2ccc(C(C)OC)c(OC)c12` (stereo not drawn) [Example 112, Methyl 6-(cyclopropanecarboxamido)-4-((4-methoxy-5-(1-methoxyethyl)-1-methyl-1H-indazol-3-yl)amino)nicotinate], the IC50 on TYK2-JH2 domain was found to be 0.162 nM; in test [1] (Mus musculus, BaF3, 72 h), 11.4 nM.

Consider `COC(=O)c1cnc(NC(=O)C2CC2)cc1Nc1nn(C)c2ccc(C(OC)C3CC3)c(OC)c12` (stereo not drawn) [Example 114, Methyl 6-(cyclopropanecarboxamido)-4-((5-(cyclopropyl(methoxy)methyl)-4-methoxy-1-methyl-1H-indazol-3-yl)amino)nicotinate], for which the IC50 at TYK2-JH2 domain was determined as 0.209 nM; in test [1] (Mus musculus, BaF3, 72 h), 21.9 nM.

As for `COC(=O)c1cnc(NC(=O)C2CC2)cc1Nc1nn(C)c2ccc(C(OC)C(C)(F)F)c(OC)c12` (stereo not drawn) [Example 115, Methyl 6-(cyclopropanecarboxamido)-4-((5-(2,2-difluoro-1-methoxypropyl)-4-methoxy-1-methyl-1H-indazol-3-yl)amino)nicotinate], the IC50 at TYK2-JH2 domain stood at 0.182 nM; in test [1] (Mus musculus, BaF3, 72 h) it was 5.58 nM.

For `CCC(F)c1cnc(NC(=O)C2CC2)cc1Nc1nn(C)c2ccc([C@H](OC)C(F)(F)F)c(OC)c12` (stereo partly drawn) [Example 144, N-(5-(1-fluoropropyl)-4-((4-methoxy-1-methyl-5-((S)-2,2,2-trifluoro-1-methoxyethyl)-1H-indazol-3-yl)amino)pyridin-2-yl)cyclopropanecarboxamide], the IC50 on TYK2-JH2 domain turned out to be 42.1 nM.

Consider `COC(=O)c1cnc(NC(=O)C2CC2)cc1Nc1nn(C)c2cccc(OC)c12` [Example 146, Methyl 6-(cyclopropanecarboxamido)-4-((4-methoxy-1-methyl-1H-indazol-3-yl)amino)nicotinate], for which the IC50 at TYK2-JH2 domain was 9.8 nM.

Consider `COC(=O)c1cnc(NC(=O)C2CC2)cc1Nc1nn(C)c2ccc(C(OC)C(F)(F)F)c(O)c12` (stereo not drawn) [Example 149, Methyl 6-(cyclopropanecarboxamido)-4-((4-hydroxy-1-methyl-5-(2,2,2-trifluoro-1-methoxyethyl)-1H-indazol-3-yl)amino)nicotinate], for which the IC50 at TYK2-JH2 domain was determined as 0.747 nM.

As to `[2H]C([2H])([2H])CC(=O)c1cnc(NC(=O)C2CC2)cc1Nc1ncc2cnn(CC(C)(F)F)c2c1OC` [Example 155, N-(4-((1-(2,2-difluoropropyl)-7-methoxy-1H-pyrazolo[4,3-c]pyridin-6-yl)amino)-5-(propanoyl-3,3,3-d3)pyridin-2-yl)cyclopropanecarboxamide], at TYK2-JH2 domain, the IC50 worked out at 0.891 nM.

Turning to `COC(=O)c1cnc(NC(=O)C2CC2)cc1Nc1nn(C)c2ccc([C@H](OCOP(=O)(O)O)C(F)(F)F)c(OC)c12` [Example 170, Sodium (S)-(1-(3-((2-(cyclopropanecarboxamido)-5-(methoxycarbonyl)pyridin-4-yl)amino)-4-methoxy-1-methyl-1H-indazol-5-yl)-2,2,2-trifluoroethoxy)methyl phosphate], the IC50 at TYK2-JH2 domain came to 0.074 nM.

Take `CCC(F)(F)c1cnc(NC(=O)C2CC2)cc1Nc1nc2ccc(N3CC(OC)C3)cn2n1` [Example 183, N-(5-(1,1-Difluoropropyl)-4-((6-(3-methoxyazetidin-1-yl)-[1,2,4]triazolo[1,5-a]pyridin-2-yl)amino)pyridin-2-yl)cyclopropanecarboxamide]: in test [1] (Mus musculus, BaF3, 72 h), the IC50 was determined as 14.5 nM.
